Assay results: PMC5159837, “Novel inhibitors of Mycobacterium tuberculosis GuaB2 identified by a target based high-throughput phenotypic screen” (Scientific Reports, 2016)
Values after ≈ are worked out from the molar mass of the structure shown. Values joined by “and” are separate entries in the source; they are usually repeats but may differ in a detail not shown here. Equal entries are not always repeated. Where two headings read alike, the source gives them in different places.

Experiments:
Mtb GuaB2 = molecular target: T1, Mtb GuaB2 (Mycobacterium tuberculosis, UniProt P9WKI7); assay: Biochemical assay of GuaB2 inhibition; settings: duplicate, mean
T1 construct: made in house
Description: The Mtb ortholog of the enzyme was recombinantly expressed, purified and assayed as previously described. Inhibition was determined at 0.1 mM, using 12 μg GuaB2 with the addition of 0.5% CHAPS. Each assay was normalised for DMSO concentration. Data was recorded in duplicate and analysed using Graphpad Prism 6.0.

M. bovis BCG pMV261 = assay: microbe, parasite or virus in culture; assay type: cell-based; settings: Mycobacterium tuberculosis variant bovis BCG, 168 h, read-out: pXC50 for Empty Vector (converted)
M. tuberculosis H37Rv = assay: MIC against H37Rv; assay type: cell-based; settings: Mycobacterium tuberculosis
Text: Table 1 Z’ and pXC50 values for dose response validation of GuaB2 targeting compounds.

[1] = test system: M. bovis BCG pMV261-guaB2; assay: microbe, parasite or virus in culture; assay type: cell-based, Mycobacterium bovis BCG; settings: for IC50: Mycobacterium tuberculosis variant bovis BCG, BCG, 168 h, 7 days, read-out: pXC50 Mean for GuaB2 (converted)
[2] = 0.1 mM compound, 12 μg GuaB2, 0.5% CHAPS, read-out: % Biochemical Inhibition of Mtb GuaB2
[3] = 0.1 mM compound, 12 μg GuaB2, 0.5% CHAPS
[4] = read-out: % Biochemical Inhibition of Mtb GuaB2, 0.1 mM compound, 12 μg GuaB2, 0.5% CHAPS

T1 sequence (P9WKI7 whole entry, looked up): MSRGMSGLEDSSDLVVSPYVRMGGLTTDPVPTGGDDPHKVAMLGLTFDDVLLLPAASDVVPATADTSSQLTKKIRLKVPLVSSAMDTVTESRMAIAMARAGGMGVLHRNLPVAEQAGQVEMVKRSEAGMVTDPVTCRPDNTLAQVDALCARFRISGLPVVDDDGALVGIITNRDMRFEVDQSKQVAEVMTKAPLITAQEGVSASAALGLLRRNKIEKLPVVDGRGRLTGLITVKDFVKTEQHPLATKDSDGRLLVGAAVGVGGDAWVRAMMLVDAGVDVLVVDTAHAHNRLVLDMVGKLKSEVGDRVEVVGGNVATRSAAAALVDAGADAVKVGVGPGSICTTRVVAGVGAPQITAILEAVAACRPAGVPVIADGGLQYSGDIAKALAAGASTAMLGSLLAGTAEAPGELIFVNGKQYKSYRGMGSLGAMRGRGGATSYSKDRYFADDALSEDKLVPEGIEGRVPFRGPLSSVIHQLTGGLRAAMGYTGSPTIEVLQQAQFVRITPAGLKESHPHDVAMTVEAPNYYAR

SMILES	inhibition at 100 µM (Mtb GuaB2; [2]) [%]	% Biochemical Inhibition of Mtb GuaB2 (Mtb GuaB2; [3])	IC50 (M. bovis BCG pMV261) [µM]	MIC (M. tuberculosis H37Rv) [µM]	Shift pIC50 [1]	IC50 [1] [µM]	inhibition at 100 µM (Mtb GuaB2; [4]) [%]
Cc1ccc([N+](=O)[O-])cc1NC(=O)Nc1cccc(Cl)c1 [DPU-2, reference compound]	44.6	–	–	–	–	–	–
NNC(=O)c1ccncc1 [INH, isoniazid, reference compound]	–	−9% and −8.88%	–	–	–	–	–
CC(=O)Nc1ccc(-c2ccc3ncc(N4CCN(C)CC4)nc3c2)cn1 [JAGC_1, N-(5-(3-(4-methylpiperazin-1-yl)quinoxalin-6-yl)pyridin-2-yl)acetamide]	23.1	–	8.91	> 80	1.05	≥ 100	–
CCOc1ccc(C(=O)Nc2cc(Cl)c3c(c2)CNCC3)cc1C(C)=O [JAGC_2, 3-acetyl-N-(5-chloro-1,2,3,4-tetrahydroisoquinolin-7-yl)-4-ethoxybenzamide]	–	26.53%	8.32	> 80	0.84	57.5	26.5
COC(=O)c1c(NC(=O)N2CCNCC2)sc2c1CC(C)(C)OC2 [JAGC_3, methyl 5,5-dimethyl-2-(piperazine-1-carboxamido)-4,7-dihydro-5H-thieno[2,3-c]pyran-3-carboxylate]	21.8	–	10.2	> 80	0.99	≥ 100	–
COc1ccc(Cl)c2sc(N(CCN(C)C)C(C)=O)nc12 [JAGC_4, N-(7-chloro-4-methoxybenzo[d]thiazol-2-yl)-N-(2-(dimethylamino)ethyl)acetamide]	20.7	–	22.9	> 80	0.64	≥ 100	–
CC(C)CCN(c1ccc(C#N)c(Cl)c1)[C@H]1CCNC1 [JAGC_5, (S)-2-chloro-4-(isopentyl(pyrrolidin-3-yl)amino)benzonitrile]	20.6	–	4.37	> 100	0.94	38	–
Clc1cc2ccccc2c(N2CCNCC2)n1 [JAGC_6, 3-chloro-1-(piperazin-1-yl)isoquinoline]	–	15.44%	3.8	> 80	1.07	44.7	12.3
CC1CCC(NC(=O)Nc2ccc3snnc3c2)CC1 (stereo not drawn) [JAGC_7, 1-(benzo[d][1,2,3]thiadiazol-5-yl)-3-(4-methylcyclohexyl)urea]	12.2	–	4.17	50 (≈ 14.5 µg/mL)	0.37	9.77	–
